This passage reports IC50 results from patent US20240182487A1, “MACROCYCLES AND THEIR USE” (BLOSSOMHILL THERAPEUTICS, INC., priority 2020, published 2024).

The target in this assay is EGFR (Δ746-750) (Homo sapiens (Human), UniProt P00533, DEL746-750). The assay can be described thus: HotSpot radiometric kinase assay, EGFR Δ746-750. The assay is classed as biochemical. The following applies: radiometric filter-binding, 10 μM ATP.
EGFR (Δ746-750), sequence (P00533 other isoform, or with tags, fused parts or gaps del 1-668/del 746-750 limits assumed): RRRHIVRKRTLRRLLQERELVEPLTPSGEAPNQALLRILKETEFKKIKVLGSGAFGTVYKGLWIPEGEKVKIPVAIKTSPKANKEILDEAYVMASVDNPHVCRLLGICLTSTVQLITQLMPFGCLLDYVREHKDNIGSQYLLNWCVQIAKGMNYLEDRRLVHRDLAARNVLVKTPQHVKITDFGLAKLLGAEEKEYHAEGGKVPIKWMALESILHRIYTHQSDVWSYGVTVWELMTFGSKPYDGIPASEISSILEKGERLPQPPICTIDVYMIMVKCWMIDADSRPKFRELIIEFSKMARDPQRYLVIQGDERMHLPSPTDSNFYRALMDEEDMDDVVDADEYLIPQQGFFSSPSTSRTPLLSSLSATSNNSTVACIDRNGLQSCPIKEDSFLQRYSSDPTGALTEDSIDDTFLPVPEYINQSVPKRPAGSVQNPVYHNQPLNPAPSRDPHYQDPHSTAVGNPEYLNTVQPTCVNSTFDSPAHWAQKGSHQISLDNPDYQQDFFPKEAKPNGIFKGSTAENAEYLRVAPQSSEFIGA
`CCc1c2c(nn1C)C(=O)N(C)CCOc1c[nH]c(=O)cc1-c1cc3c(n[nH]c3cn1)/C=C/2` [Cpd. 38, (18E)-17-ethyl-13,16-dimethyl-2,12,13,16-tetrahydro-5,3-(azenometheno)dipyrazolo[3,4-f:3′,4′-j]pyrido[4,3-n][1,4]oxazacyclopentadecine-7,14(8H,11H)-dione]: the half-inhibitory concentration (IC50) was 964 nM. Consider `COC(=O)c1ccc2c(c1)OCCCOc1c(cnn1C)-c1cc3c(n[nH]c3cn1)/C=C/2` [Cpd. 67, methyl (11E)-1-methyl-19,20-dihydro-1H,8H,18H-10,7,4-(ethan[1]yl[1,2]diylidene)pyrazolo[3,4-f][1,5,9,12,13]benzodioxatriazacyclooctadecine-15-carboxylate], for which the concentration for half-maximal inhibition (IC50) was found to be 1530 nM. `COC(=O)c1ccc2c(c1)/C=C/c1n[nH]c3cnc(cc13)-c1cnn(C)c1OCCCO2` [Cpd. 68, methyl (11E)-1-methyl-19,20-dihydro-1H,8H,18H-10,7,4-(ethan[1]yl[1,2]diylidene)pyrazolo[3,4-f][1,5,9,12,13]benzodioxatriazacyclooctadecine-14-carboxylate]: the half-inhibitory concentration (IC50) was found to be 93.3 nM. This IC50 is about 16-fold lower than that of the compound before. Under `COC(=O)c1ccc2c(c1)OCCOCc1c(cnn1C)-c1cc3c(n[nH]c3cn1)/C=C/2` [Cpd. 69, methyl (11E)-1-methyl-1,18,19,21-tetrahydro-8H-10,7,4-(ethan[1]yl[1,2]diylidene)pyrazolo[3,4-f][1,4,9,12,13]benzodioxatriazacyclooctadecine-15-carboxylate] stands 1000 nM. Under `CN(C)CCCNC(=O)c1ccc2c(c1)/C=C/c1n[nH]c3cnc(cc13)-c1cnn(C)c1OCCCO2` [Cpd. 70, (11E)-N-[3-(dimethylamino)propyl]-1-methyl-19,20-dihydro-1H,8H,18H-10,7,4-(ethan[1]yl[1,2]diylidene)pyrazolo[3,4-f][1,5,9,12,13]benzodioxatriazacyclooctadecine-14-carboxamide] stands 2.9 nM.

Turning to `Cn1ncc2c1OCCCOc1ccc(C(=O)N3CCCC3)cc1/C=C/c1n[nH]c3cnc-2cc13` [Cpd. 72, [(11E)-1-methyl-19,20-dihydro-1H,8H,18H-10,7,4-(ethan[1]yl[1,2]diylidene)pyrazolo[3,4-f][1,5,9,12,13]benzodioxatriazacyclooctadecin-14-yl](pyrrolidin-1-yl)methanone], the half-inhibitory concentration (IC50) was determined as 18.3 nM. The same measure for `Cn1ncc2c1OCCCOc1cc(C(=O)O)ccc1/C=C/c1n[nH]c3cnc-2cc13` [Cpd. 73, (11E)-1-methyl-19,20-dihydro-1H,8H,18H-10,7,4-(ethan[1]yl[1,2]diylidene)pyrazolo[3,4-f][1,5,9,12,13]benzodioxatriazacyclooctadecine-15-carboxylic acid]: 35.8 nM; for `CN(C)CCNC(=O)c1ccc2c(c1)OCCCOc1c(cnn1C)-c1cc3c(n[nH]c3cn1)/C=C/2` [Cpd. 74, (11E)-N-[2-(dimethylamino)ethyl]-1-methyl-19,20-dihydro-1H,8H,18H-10,7,4-(ethan[1]yl[1,2]diylidene)pyrazolo[3,4-f][1,5,9,12,13]benzodioxatriazacyclooctadecine-15-carboxamide]: 4 nM. As for `COC(=O)c1ccc2c(c1)/C=C/c1n[nH]c3cnc(cc13)-c1cnn(C)c1COCCO2` [Cpd. 75, methyl (11E)-1-methyl-1,18,19,21-tetrahydro-8H-10,7,4-(ethan[1]yl[1,2]diylidene)pyrazolo[3,4-f][1,4,9,12,13]benzodioxatriazacyclooctadecine-14-carboxylate], the concentration for half-maximal inhibition (IC50) turned out to be 51 nM. Under `CN1CCC(CNC(=O)c2ccc3c(c2)/C=C/c2n[nH]c4cnc(cc24)-c2cnn(C)c2OCCCO3)CC1` [Cpd. 76, (11E)-1-methyl-N-[(1-methylpiperidin-4-yl)methyl]-19,20-dihydro-1H,8H,18H-10,7,4-(ethan[1]yl[1,2]diylidene)pyrazolo[3,4-f][1,5,9,12,13]benzodioxatriazacyclooctadecine-14-carboxamide] stands 2.2 nM.

The compound `CC(C)NC(=O)c1ccc2c(c1)OCCCOc1c(cnn1C)-c1cc3c(n[nH]c3cn1)/C=C/2` [Cpd. 77, (11E)-1-methyl-N-(propan-2-yl)-19,20-dihydro-1H,8H,18H-10,7,4-(ethan[1]yl[1,2]diylidene)pyrazolo[3,4-f][1,5,9,12,13]benzodioxatriazacyclooctadecine-15-carboxamide] showed an IC50 of 34.6 nM.

For `CN1CCC(NC(=O)c2ccc3c(c2)OCCCOc2c(cnn2C)-c2cc4c(n[nH]c4cn2)/C=C/3)CC1` [Cpd. 78, (11E)-1-methyl-N-(1-methylpiperidin-4-yl)-19,20-dihydro-1H,8H,18H-10,7,4-(ethan[1]yl[1,2]diylidene)pyrazolo[3,4-f][1,5,9,12,13]benzodioxatriazacyclooctadecine-15-carboxamide], the IC50 amounted to 5.3 nM. Regarding `CN1CC[C@@H](NC(=O)c2ccc3c(c2)OCCCOc2c(cnn2C)-c2cc4c(n[nH]c4cn2)/C=C/3)C1` [Cpd. 82, (11E)-1-methyl-N-[(3R)-1-methylpyrrolidin-3-yl]-19,20-dihydro-1H,8H,18H-10,7,4-(ethan[1]yl[1,2]diylidene)pyrazolo[3,4-f][1,5,9,12,13]benzodioxatriazacyclooctadecine-15-carboxamide], the IC50 is 28.3 nM. As to `CN1CC(NC(=O)c2ccc3c(c2)OCCCOc2c(cnn2C)-c2cc4c(n[nH]c4cn2)/C=C/3)C1` [Cpd. 83, (11E)-1-methyl-N-(1-methylazetidin-3-yl)-19,20-dihydro-1H,8H,18H-10,7,4-(ethan[1]yl[1,2]diylidene)pyrazolo[3,4-f][1,5,9,12,13]benzodioxatriazacyclooctadecine-15-carboxamide], the concentration for half-maximal inhibition (IC50) is 34.4 nM. The IC50 values of the last two compounds are within 1.5-fold of each other. Compound `CCNC(=O)c1ccc2c(c1)OCCOCc1c(cnn1C)-c1cc3c(n[nH]c3cn1)/C=C/2` [Cpd. 84, (11E)-N-ethyl-1-methyl-1,18,19,21-tetrahydro-8H-10,7,4-(ethan[1]yl[1,2]diylidene)pyrazolo[3,4-f][1,4,9,12,13]benzodioxatriazacyclooctadecine-15-carboxamide] yielded a 50% inhibitory concentration (IC50) of 240 nM. The same measure for `CN1CCC(NC(=O)c2ccc3c(c2)OCCOCc2c(cnn2C)-c2cc4c(n[nH]c4cn2)/C=C/3)CC1` [Cpd. 85, (11E)-1-methyl-N-(1-methylpiperidin-4-yl)-1,18,19,21-tetrahydro-8H-10,7,4-(ethan[1]yl[1,2]diylidene)pyrazolo[3,4-f][1,4,9,12,13]benzodioxatriazacyclooctadecine-15-carboxamide]: 70 nM; for `CNC(=O)c1ccc2c(c1)/C=C/c1n[nH]c3cnc(cc13)-c1cnn(C)c1OCCCO2` [Cpd. 86, (11E)-N,1-dimethyl-19,20-dihydro-1H,8H,18H-10,7,4-(ethan[1]yl[1,2]diylidene)pyrazolo[3,4-f][1,5,9,12,13]benzodioxatriazacyclooctadecine-14-carboxamide]: 15.6 nM; for `CN1CC[C@@H](NC(=O)c2ccc3c(c2)OCCOCc2c(cnn2C)-c2cc4c(n[nH]c4cn2)/C=C/3)C1` [Cpd. 87, (11E)-1-methyl-N-[(3R)-1-methylpyrrolidin-3-yl]-1,18,19,21-tetrahydro-8H-10,7,4-(ethan[1]yl[1,2]diylidene)pyrazolo[3,4-f][1,4,9,12,13]benzodioxatriazacyclooctadecine-15-carboxamide]: 34.6 nM. On to `CN1CC[C@H](NC(=O)c2ccc3c(c2)OCCCOc2c(cnn2C)-c2cc4c(n[nH]c4cn2)/C=C/3)C1` [Cpd. 88, (11E)-1-methyl-N-[(3S)-1-methylpyrrolidin-3-yl]-19,20-dihydro-1H,8H,18H-10,7,4-(ethan[1]yl[1,2]diylidene)pyrazolo[3,4-f][1,5,9,12,13]benzodioxatriazacyclooctadecine-15-carboxamide], for which the IC50 worked out at 24.6 nM.

In turn, `CCNC(=O)c1ccc2c(c1)/C=C/c1n[nH]c3cnc(cc13)-c1cnn(C)c1COCCO2` [Cpd. 89, (11E)-N-ethyl-1-methyl-1,18,19,21-tetrahydro-8H-10,7,4-(ethan[1]yl[1,2]diylidene)pyrazolo[3,4-f][1,4,9,12,13]benzodioxatriazacyclooctadecine-14-carboxamide] displayed an IC50 of 23.8 nM. This IC50 and that of the compound before are within 1.5-fold of each other. The same measure for `CN(C)CCNC(=O)c1ccc2c(c1)/C=C/c1n[nH]c3cnc(cc13)-c1cnn(C)c1COCCO2` [Cpd. 90, (11E)-N-[2-(dimethylamino)ethyl]-1-methyl-1,18,19,21-tetrahydro-8H-10,7,4-(ethan[1]yl[1,2]diylidene)pyrazolo[3,4-f][1,4,9,12,13]benzodioxatriazacyclooctadecine-14-carboxamide]: 16.8 nM. The compound `CN(C)CCCNC(=O)c1ccc2c(c1)/C=C/c1n[nH]c3cnc(cc13)-c1cnn(C)c1COCCO2` [Cpd. 91, (11E)-N-[3-(dimethylamino)propyl]-1-methyl-1,18,19,21-tetrahydro-8H-10,7,4-(ethan[1]yl[1,2]diylidene)pyrazolo[3,4-f][1,4,9,12,13]benzodioxatriazacyclooctadecine-14-carboxamide] displayed an IC50 of 19.7 nM. `Cn1ncc2c1COCCOc1ccc(C(=O)O)cc1/C=C/c1n[nH]c3cnc-2cc13` [Cpd. 92, (11E)-1-methyl-1,18,19,21-tetrahydro-8H-10,7,4-(ethan[1]yl[1,2]diylidene)pyrazolo[3,4-f][1,4,9,12,13]benzodioxatriazacyclooctadecine-14-carboxylic acid] yielded an IC50 of 47.1 nM. This IC50 lies about 2.4-fold higher than the previous one. The same measure for `CN1CCC(NC(=O)c2ccc3c(c2)/C=C/c2n[nH]c4cnc(cc24)-c2cnn(C)c2COCCO3)CC1` [Cpd. 93, (11E)-1-methyl-N-(1-methylpiperidin-4-yl)-1,18,19,21-tetrahydro-8H-10,7,4-(ethan[1]yl[1,2]diylidene)pyrazolo[3,4-f][1,4,9,12,13]benzodioxatriazacyclooctadecine-14-carboxamide]: 13.6 nM; for `CN1CCC(CNC(=O)c2ccc3c(c2)/C=C/c2n[nH]c4cnc(cc24)-c2cnn(C)c2COCCO3)CC1` [Cpd. 94, (11E)-1-methyl-N-[(1-methylpiperidin-4-yl)methyl]-1,18,19,21-tetrahydro-8H-10,7,4-(ethan[1]yl[1,2]diylidene)pyrazolo[3,4-f][1,4,9,12,13]benzodioxatriazacyclooctadecine-14-carboxamide]: 17.6 nM.
